In experiment [1] the target is T1, c-Kit(V654A) (Homo sapiens, UniProt P10721, V654A).
T1 construct: amino acids 544-end containing the V654A mutation; GST (N)
As to the kind of experiment: c-Kit(V654A) assay. It is filed as biochemical. Conditions: recombinant human c-Kit aa 544-end, 200 μM ATP, 1.4E-06 means 1.4×10^−6, read-out: Inhibition (IC50) of c-KIT (V654A). In short, it runs like this: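 Radiometric filter-binding read-out: substrate 33P incorporation counted by scintillation after P30 filtermat washes in 75 mM phosphoric acid and methanol. Enzyme: N-GST recombinant human c-Kit aa 544-end carrying V654A.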

The target in experiment [2] is T2, PDGFRalpha(V561D) (Homo sapiens, UniProt P16234, V561D).
T2 construct: recombinant human PDGFRalpha, amino acids 550end containing the V561 D mutation; 6His (N)
Kind of experiment: PDGFRalpha(V561D) assay. It is filed as biochemical. Conditions: recombinant human PDGFRalpha aa 550-end, 200 μM ATP, 1.4E-06 means 1.4×10^−6, read-out: Inhibition (IC50) of PDGFRα (V561D). In a few lines: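 Radiometric filter-binding assay: substrate phosphorylation by recombinant N-His-tagged human PDGFRα 550-end V561D was quenched with 3% phosphoric acid after 40 min at room temperature, then counted.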

The values that follow come from patent publication US11939314B2, “Quinolin-2-one derivatives” (MERCK PATENT GMBH, priority 2016, dated 2024).

In general, IC50 refers to the point on the concentration scale where inhibition reaches its midpoint.

T1 sequence (P10721 544-976 V654A): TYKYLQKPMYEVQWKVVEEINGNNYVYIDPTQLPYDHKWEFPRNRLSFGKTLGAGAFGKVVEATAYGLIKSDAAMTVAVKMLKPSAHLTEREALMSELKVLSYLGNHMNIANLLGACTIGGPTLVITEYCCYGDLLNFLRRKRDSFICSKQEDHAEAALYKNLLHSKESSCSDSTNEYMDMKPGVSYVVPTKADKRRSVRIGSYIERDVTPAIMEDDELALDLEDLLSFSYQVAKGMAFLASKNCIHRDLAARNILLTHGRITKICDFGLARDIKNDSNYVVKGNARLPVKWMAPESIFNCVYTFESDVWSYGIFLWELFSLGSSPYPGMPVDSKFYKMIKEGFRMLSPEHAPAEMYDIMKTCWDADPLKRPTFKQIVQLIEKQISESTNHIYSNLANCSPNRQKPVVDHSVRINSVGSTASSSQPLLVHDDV
T2 sequence (P16234 550-1089 V561D): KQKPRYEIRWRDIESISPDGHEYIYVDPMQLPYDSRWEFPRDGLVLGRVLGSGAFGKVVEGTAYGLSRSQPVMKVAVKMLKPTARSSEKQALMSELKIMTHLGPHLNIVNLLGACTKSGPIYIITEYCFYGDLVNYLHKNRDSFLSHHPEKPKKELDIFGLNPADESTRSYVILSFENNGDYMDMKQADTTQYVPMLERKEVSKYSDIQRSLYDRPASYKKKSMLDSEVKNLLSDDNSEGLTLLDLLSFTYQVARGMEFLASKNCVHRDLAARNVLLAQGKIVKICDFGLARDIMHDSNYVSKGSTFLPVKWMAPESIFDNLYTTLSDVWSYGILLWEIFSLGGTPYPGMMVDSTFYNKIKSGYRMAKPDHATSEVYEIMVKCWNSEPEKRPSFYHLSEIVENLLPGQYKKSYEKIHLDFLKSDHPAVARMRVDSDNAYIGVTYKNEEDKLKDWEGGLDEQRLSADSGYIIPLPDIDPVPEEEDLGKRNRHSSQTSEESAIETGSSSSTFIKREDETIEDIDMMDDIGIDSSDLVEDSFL

`Cc1cc2[nH]c(=O)c(-c3cn(-c4ccc(C(=O)N5CCN(C)CC5)cc4)nn3)cc2cc1F` [A222, 6-fluoro-7-methyl-3-{1-[4-(4-methyl-piperazine-1-carbonyl)-phenyl]-1H-[1,2,3]triazol-4-yl}-1H-quinolin-2-one]: the IC50 in experiment [1] is 72 nM; in experiment [2], 210 nM.
The like results for `COCCOC[C@@H]1CCN(C(=O)c2ccc(-n3cc(-c4cc5cc(F)c(F)cc5[nH]c4=O)nn3)cc2)C1` [A223, 6,7-difluoro-3-(1-{4-[(R)-3-(2-methoxy-ethoxymethyl)-pyrrolidine-1-carbonyl]-phenyl}-1H-[1,2,3]triazol-4-yl)-1H-quinolin-2-one] were, in that order, 350 nM and 410 nM.
For `O=C(c1ccc(-n2cc(-c3cc4cc(F)ccc4[nH]c3=O)nn2)cc1)N1CCC(OCCN2CCCC2)C1` (stereo not shown) [A224, 6-fluoro-3-(1-{4-[3-(2-pyrrolidin-1-yl-ethoxy)-pyrrolidine-1-carbonyl]-phenyl}-1H-[1,2,3]triazol-4-yl)-1H-quinolin-2-one] the same measures were 70 nM and 280 nM.
Consider `O=C(c1ccc(-n2cc(-c3cc4cc(F)c(F)cc4[nH]c3=O)nn2)cc1)N1CCC(OCCN2CCCC2)C1` (stereo not shown) [A225, 6,7-difluoro-3-(1-{4-[3-(2-pyrrolidin-1-yl-ethoxy)-pyrrolidine-1-carbonyl]-phenyl}-1H-[1,2,3]triazol-4-yl)-1H-quinolin-2-one], for which the IC50 in experiment [1] turned out to be 190 nM; in experiment [2], 580 nM.
In the case of `NC(=O)[C@@H]1CCN(C(=O)c2ccc(-n3cc(-c4cc5cc(F)ccc5[nH]c4=O)nn3)cc2)C1` [A226, (R)-1-{4-[4-(6-fluoro-2-oxo-1,2-dihydro-quinolin-3-yl)-[1,2,3]triazol-1-yl]-benzoyl}-pyrrolidine-3-carboxylic acid amide], the values for the IC50 in experiment [1] and in experiment [2] were 55 nM and 89 nM, respectively.
The like results for `O=C(c1ccc(-n2cc(-c3cc4cc(F)ccc4[nH]c3=O)nn2)cc1)N1C[C@H](O)C[C@H]1CO` [A227, 6-fluoro-3-{1-[4-((2S,4R)-4-hydroxy-2-hydroxymethyl-pyrrolidine-1-carbonyl)-phenyl]-1H-[1,2,3]triazol-4-yl}-1H-quinolin-2-one] were, in that order, 92 nM and 140 nM.
The like results for `O=C(c1ccc(-n2cc(-c3cc4cc(F)ccc4[nH]c3=O)nn2)cc1)N1CCCC2(COC2)C1` [A228, 6-fluoro-3-{1-[4-(2-oxa-6-aza-spiro[3.5]nonane-6-carbonyl)-phenyl]-1H-[1,2,3]triazol-4-yl}-1H-quinolin-2-one] were, in that order, 74 nM and 300 nM.
The like results for `O=C(c1ccc(-n2cc(-c3cc4cc(F)ccc4[nH]c3=O)nn2)cc1)N1CCC2(CC1)COC2` [A229, 6-fluoro-3-{1-[4-(2-oxa-7-aza-spiro[3.5]nonane-7-carbonyl)-phenyl]-1H-[1,2,3]triazol-4-yl}-1H-quinolin-2-one] were, in that order, 41 nM and 150 nM.
For `O=C(c1ccc(-n2cc(-c3cc4cc(F)ccc4[nH]c3=O)nn2)cc1)N1CCN(C2COC2)CC1` [A230, 6-fluoro-3-{1-[4-(4-oxetan-3-yl-piperazine-1-carbonyl)-phenyl]-1H-[1,2,3]triazol-4-yl}-1H-quinolin-2-one], the results for the IC50 in experiment [1] and in experiment [2] were 49 nM and 95 nM, respectively.
With `O=C(c1ccc(-n2cc(-c3cc4cc(F)ccc4[nH]c3=O)nn2)cc1)N1CCOC2(COC2)C1` [A231, 3-{1-[4-(2,5-dioxa-8-aza-spiro[3.5]nonane-8-carbonyl)-phenyl]-1H-[1,2,3]triazol-4-yl}-6-fluoro-1H-quinolin-2-one], the values for the IC50 in experiment [1] and in experiment [2] were 90 nM and 340 nM, respectively.
The like results for `O=C(NC1COC1)c1ccc(-n2cc(-c3cc4cc(F)ccc4[nH]c3=O)nn2)cc1` [A232, 4-[4-(6-fluoro-2-oxo-1,2-dihydro-quinolin-3-yl)-[1,2,3]triazol-1-yl]-N-oxetan-3-yl-benzamide] were, in that order, 160 nM and 980 nM.
The like results for `COCCOC[C@H]1CCN(C(=O)c2ccc(-n3cc(-c4cc5cc(F)c(F)cc5[nH]c4=O)nn3)cc2)C1` [A233, 6,7-difluoro-3-(1-{4-[(S)-3-(2-methoxy-ethoxymethyl)-pyrrolidine-1-carbonyl]-phenyl}-1H-[1,2,3]triazol-4-yl)-1H-quinolin-2-one] were, in that order, 96 nM and 600 nM.
In the case of `O=C(c1ccc(-n2cc(-c3cc4cc(F)ccc4[nH]c3=O)nn2)cc1)N1CCCC12COC2` [A234, 6-fluoro-3-{1-[4-(2-oxa-5-aza-spiro[3.4]octane-5-carbonyl)-phenyl]-1H-[1,2,3]triazol-4-yl}-1H-quinolin-2-one], the IC50 in experiment [1] stood at 50 nM; in experiment [2], 740 nM.
For `O=C(c1ccc(-n2cc(-c3cc4cc(F)ccc4[nH]c3=O)nn2)cc1)N1CC2(COC2)C1` [A235, 6-fluoro-3-{1-[4-(2-oxa-6-aza-spiro[3.3]heptane-6-carbonyl)-phenyl]-1H-[1,2,3]triazol-4-yl}-1H-quinolin-2-one], the IC50 in experiment [1] amounted to 42 nM; in experiment [2], 140 nM.
The like results for `COCCOC[C@H]1CCN(C(=O)c2ccc(-n3cc(-c4cc5cc(F)ccc5[nH]c4=O)nn3)cc2)C1` [A236, 6-fluoro-3-(1-{4-[(S)-3-(2-methoxy-ethoxymethyl)-pyrrolidine-1-carbonyl]-phenyl}-1H-[1,2,3]triazol-4-yl)-1H-quinolin-2-one] were, in that order, 53 nM and 560 nM.
The like results for `CO[C@H]1CN(C(=O)c2ccc(-n3cc(-c4cc5cc(F)ccc5[nH]c4=O)nn3)cc2)C[C@H]1OC` [A237, 3-{1-[4-((3R,4S)-3,4-dimethoxy-pyrrolidine-1-carbonyl)-phenyl]-1H-[1,2,3]triazol-4-yl}-6-fluoro-1H-quinolin-2-one] were, in that order, 81 nM and 490 nM.
For the compound `COCCN(CCOC)C(=O)c1ccc(-n2cc(-c3cc4cc(F)ccc4[nH]c3=O)nn2)cc1` [A238, 4-[4-(6-fluoro-2-oxo-1,2-dihydro-quinolin-3-yl)-[1,2,3]triazol-1-yl]-N,N-bis-(2-methoxy-ethyl)-benzamide], the figures for the IC50 in experiment [1] and in experiment [2] were 79 nM and 620 nM, respectively.
The like results for `CCN(CC)CC1CCN(C(=O)c2ccc(-n3cc(-c4cc5cc(F)c(F)cc5[nH]c4=O)nn3)cc2)C1` (stereo not shown) [A239, 3-{1-[4-(3-diethylaminomethyl-pyrrolidine-1-carbonyl)-phenyl]-1H-[1,2,3]triazol-4-yl}-6,7-difluoro-1H-quinolin-2-one] were, in that order, 330 nM and 1200 nM.
With `CC(=O)N1C[C@@H]2[C@H](C1)[C@H]2NC(=O)c1ccc(-n2cc(-c3cc4cc(F)ccc4[nH]c3=O)nn2)cc1` [A240, N-(3-acetyl-3-aza-bicyclo[3.1.0]hex-6-yl)-4-[4-(6-fluoro-2-oxo-1,2-dihydro-quinolin-3-yl)-[1,2,3]triazol-1-yl]-benzamide], the IC50 was determined as 130 nM in experiment [1] and 250 nM in experiment [2].
As for `CO[C@@H]1C[C@@H](CO)N(C(=O)c2ccc(-n3cc(-c4cc5cc(F)ccc5[nH]c4=O)nn3)cc2)C1` [A241, 6-fluoro-3-{1-[4-((2S,4R)-2-hydroxymethyl-4-methoxy-pyrrolidine-1-carbonyl)-phenyl]-1H-[1,2,3]triazol-4-yl}-1H-quinolin-2-one], the IC50 in experiment [1] is 100 nM; in experiment [2] it was 290 nM.
